This is an account of results in patent US7655225B2, “Methods of expanding stem and progenitor cells and expanded cell populations obtained thereby” (Gamida Cell, Ltd., priority 2002, dated 2010).

The subject of assay [1] is CD34+ cells. Briefly: Self-renewal potential: colony-forming cells (CFU) from CD34+ cultures. The assay is classed as cell-based, human. Conditions: five-weeks culture; 10 or 20 μM, added first three weeks; FIG. 9. An excerpt: Ex vivo expansion of progenitor cells: Enriched CD34^+ cell fractions were cultures in 24-well Costar Cell Culture Clusters (Corning Inc., Corning, N.Y.) or in Culture Bags (American Fluoroseal Corp.) with alpha minimal essential medium supplemented with 10% fetal bovine serum (FBS, Biological Industries), at about 1-3×10^4 cells/ml medium. The media were further supplemented with the following human recombinant cytokines (all obtained from Perpo Tech, Inc., Rocky Hill, N.J.): Thrombopoietin (TPO), 50 ng/ml; interleukin 6 (IL-6), 50 ng/ml; FLT-3 ligand, 50 ng/ml; and IL-3, 20 ng/ml. The cultures were incubated at 37° C. in an atmosphere of 5% CO2 in air with extra humidity. At weekly intervals cell cultures were semi-depopulated and supplemented with fresh medium containing the cytokines. Following different incubation periods, the cells were harvested, stained with trypan blue and enumerated. The total cell counts, numbers of CD34^+ cells and subsets thereof, and the number of colony-forming cells (CFU) are presented herein as cumulative numbers, with the assumption that the cultures had not been passaged, namely, the numbers of cells per ml were multiplied by the number of passages performed. Self-renewal potential evaluations: The self-renewal potential of stem cells was determined in vitro by long-term colony formation. Cells were washed and seeded in a semi-solid methylcellulose medium supplemented with 2 IU/ml erythropoietin ([…] Int., Switzerland), stem cell factor and IL-3, both at 20 ng/ml (Perpo Tech), and G-CSF and GM-CSF, both at 10 ng/ml (Perpo Tech). The resulting colonies were scored after two weeks of incubation at 37° C. in a humidified atmosphere of 5% CO2 in air. Colonies were classified as blast, mixed, erythroid, myeloid, and megakaryocytic, according to their cellular composition.

For assay [2], the system named is CD34+ cells. Briefly: Ex vivo expansion of purified CD34+ cells in liquid culture: cell enumeration and FACS of subsets. To be noted: three weeks, 5, 10 or 20 μM. Format: cell-based, human. The procedure: Sample collection and processing: Samples were obtained from umbilical human cord blood and processed within 12 hours. The blood cells were mixed with 3% Gelatin (Gigma, St. Louis, Mo.) and allowed to sediment for 30 minutes to remove most red blood cells. The leukocyte-rich fraction was harvested, layered on Ficoll-Hypaque (density 1.077 gram/ml; Sigma) and centrifuged at 400 g for 30 minutes at room temperature. The mononuclear cells in the interface layer were then collected, washed three times in phosphate-buffered saline (PBS; Biological Industries), and re-suspended in PBS solution which contains 1% bovine serum albumin (BSA; Sigma). The cells were then incubated at 4° C. for 30 minutes with murine monoclonal anti CD34^+ antibody (0.5 μg/10^6 mononuclear cells) and were thereafter isolated using two cycles of immuno-magnetic separation using the miniMACS CD34^+ Progenitor Cell Isolation Kit (Miltenyi-Biotec, Auburn, Calif.) according to the manufacturer's recommendations. The purity of the CD34^+ cells obtained ranged between 95% and 98%, based on Flow Cytometry evaluation (see below). Ex vivo expansion of progenitor cells: Enriched CD34^+ cell fractions were cultures in 24-well Costar Cell Culture Clusters (Corning Inc., Corning, N.Y.) or in Culture Bags (American Fluoroseal Corp.) with alpha minimal essential medium supplemented with 10% fetal bovine serum (FBS, Biological Industries), at about 1-3×10^4 cells/ml medium. The media were further supplemented with the following human recombinant cytokines (all obtained from Perpo Tech, Inc., Rocky Hill, N.J.): Thrombopoietin (TPO), 50 ng/ml; interleukin 6 (IL-6), 50 ng/ml; FLT-3 ligand, 50 ng/ml; and IL-3, 20 ng/ml. The cultures were incubated at 37° C. in an atmosphere of 5% CO2 in air with extra humidity. At weekly intervals cell cultures were semi-depopulated and supplemented with fresh medium containing the cytokines. Following different incubation periods, the cells were harvested, stained with trypan blue and enumerated. The total cell counts, numbers of CD34^+ cells and subsets thereof, and the number of colony-forming cells (CFU) are presented herein as cumulative numbers, with the assumption that the cultures had not been passaged, namely, the numbers of cells per ml were multiplied by the number of passages performed. Surface antigen analysis: At different time intervals, the cultured cells were harvested, washed with a PBS solution containing 1% BSA and 0.1% sodium azide (Sigma), and stained, at 4° C. for 60 minutes, with FITC-labeled anti CD45 monoclonal antibody and either PE-labeled anti CD34 (HPCA-2) monoclonal or PE-labeled control mouse Ig (all from Immunoquality Products, the Netherlands). The cells were then washed with the same PBS solution and were analyzed by a flow cytometer, as described hereinafter. Flow cytometry analysis: Cells were analyzed and sorted using FACS caliber flow cytometer (Becton-Dickinson, Immunofluorometry systems, Mountain View, Calif.). Cells were passed at a rate of 1,000 cells/second through a 70 μm nozzle, using a saline sheath fluid. A 488 nm argon laser beam at 250 mW served as the light source for excitation. Fluorescence emission of ten thousand cells was measured using a logarithmic amplification and analyzed using CellQuest software. Determination of the density of stem and progenitor subset populations following expansion: Following an incubation period, the CD34^+ cells were re-selected using miniMACS Miltenyi kit. The purity of the positive fraction of selected CD34^+ cells was confirmed by FACS analysis as well as by cell morphology analysis. The density of CD34^+ cells, in proportion (percentage) to total cells, was determined directly via FACS analysis. The densities of CD34^+ subset populations were determined from the purified CD34^+ fraction. Re-selected CD34^+ cells were stained with lineage specific antigens followed by FACS analysis to determine the percentage of the subset populations within the total number of CD34^+ cells. […]

In the case of `[Cl][Cu][Cl]` [copper chloride, reference compound], in assay [1], the “colony-forming cells of CD34+ vs untreated or TEPA-Cu treated cultures” value was “substantially fewer”. Besides, the “number of total cells vs untreated control” value in assay [2] (FIG. 8a) is “did not differ significantly”. Besides, the “stem cells (CD34+) vs untreated or chelate-treated cultures” value in assay [2] (FIG. 8b) was “fewer”. Also, the “CD34+ CD38− stem/progenitor subset cells vs untreated or chelate-treated cultures” value in assay [2] (FIG. 8c) is recorded as “fewer”. Also, in assay [2] (FIG. 8d), the “CD34+ Lin− stem/progenitor subset cells vs untreated or chelate-treated cultures” value is listed as “fewer”.
